Test system: Wnt/β-catenin signaling pathway (Wnt-responsive SP5 promoter luciferase reporter in SW480 cells)
Experiment: Wnt reporter (SP5 promoter-firefly luciferase) activation assay in SW480 cells
Format: cell-based
Conditions: Homo sapiens; SW480 colon cancer cells with SP5 promoter luciferase reporter; 24 h after compound addition; normalized to DMSO; concentration at half maximal activation
Protocol: Compounds that enhance the Wnt activity, or Activators, were assayed as follows. Reporter cell lines were generated by stably transducing cells of colon cancer cell lines (with a lentiviral construct that included a Wnt-responsive promoter driving expression of the firefly luciferase gene).
Lentiviral constructs were made in which the SP5 promoter, a promoter having eight TCF/LEF binding sites derived from the SP5 promoter, was linked upstream of the firefly luciferase gene. The lentiviral constructs also included a hygromycin resistance gene as a selectable marker. The SP5 promoter construct was used to transduce SW480 cells, a colon cancer cell line having a mutated APC gene that generates a truncated APC protein, leading to de-regulated accumulation of β-catenin.
Cultured SW480 cells bearing a reporter construct were distributed at approximately 10,000 cells per well into 384- or 96-well multiwell plates. Compounds from a small molecule compound library were then added to the wells in half-log dilutions using a maximum concentration of three or ten micromolar. A series of control wells for each cell type received only buffer and compound solvent DMSO. Twenty-four hours after the addition of compound, reporter activity for luciferase was assayed, for example, by addition of the BrightGlo luminescence reagent (Promega) and the Victor3 plate reader (Perkin Elmer). Readings were normalized to DMSO only treated cells, and any activities above DMSO were considered activation. Compounds were considered activators if reporter activities were 2× fold or greater than DMSO. EC50 is the concentration at half maximal activation.

Structure (SMILES) | EC50
Cc1ccc(C(=O)CCC(=O)c2ccc3c(c2)OCCO3)cc1 [Compound 344, 1-(2,3-Dihydrobenzo[b][1,4]dioxin-6-yl)-4-(p-tolyl)butane-1,4-dione] | 307 nM
O=C(CCC(=O)c1ccc2c(c1)OCCO2)c1cncnc1 [Compound 345, 1-(2,3-Dihydrobenzo[b][1,4]dioxin-6-yl)-4-(pyrimidin-5-yl)butane-1,4-dione] | > 10000 nM
O=C(CCC(=O)c1ccco1)c1ccc2c(c1)OCCO2 [Compound 346, 1-(2,3-Dihydrobenzo[b][1,4]dioxin-6-yl)-4-(furan-2-yl)butane-1,4-dione] | 24 nM
Cc1ccccc1C(=O)CCC(=O)c1ccc2c(c1)CCCO2 [Compound 358, 1-(Chroman-6-yl)-4-(o-tolyl)butane-1,4-dione] | 14 nM
O=C(CCC(=O)c1ncccn1)c1ccc2c(c1)CCCO2 [Compound 362, 1-(Chroman-6-yl)-4-(pyrimidin-2-yl)butane-1,4-dione] | 188 nM
O=C(CCC(=O)c1cccs1)c1ccc2c(c1)CCCO2 [Compound 364, 1-(Chroman-6-yl)-4-(thiophen-2-yl)butane-1,4-dione] | 13 nM
O=C(CCC(=O)c1ccco1)c1ccc2c(c1)CCCO2 [Compound 365, 1-(Chroman-6-yl)-4-(furan-2-yl)butane-1,4-dione] | 33 nM
Cc1ccccc1C(=O)CCC(=O)c1ccc2c(c1)OCO2 [Compound 368, 1-(Benzo[d][1,3]dioxol-5-yl)-4-(o-tolyl)butane-1,4-dione] | 16 nM
O=C(CCC(=O)c1ncccn1)c1ccc2c(c1)OCO2 [Compound 372, 1-(Benzo[d][1,3]dioxol-5-yl)-4-(pyrimidin-2-yl)butane-1,4-dione] | 97 nM
O=C(CCC(=O)c1cccs1)c1ccc2c(c1)OCO2 [Compound 374, 1-(Benzo[d][1,3]dioxol-5-yl)-4-(thiophen-2-yl)butane-1,4-dione] | 13 nM
O=C(CCC(=O)c1ccco1)c1ccc2c(c1)OCO2 [Compound 375, 1-(Benzo[d][1,3]dioxol-5-yl)-4-(furan-2-yl)butane-1,4-dione] | 71 nM
Cc1cccc(C(=O)CCC(=O)c2ccc3c(c2)OC(F)(F)O3)c1 [Compound 379, 1-(2,2-Difluorobenzo[d][1,3]dioxol-5-yl)-4-(m-tolyl)butane-1,4-dione] | > 10000 nM
O=C(CCC(=O)c1ccco1)c1ccc2c(c1)OC(F)(F)O2 [Compound 385, 1-(2,2-Difluorobenzo[d][1,3]dioxol-5-yl)-4-(furan-2-yl)butane-1,4-dione] | 165 nM
COc1ccc(C(=O)CCC(=O)c2cccc(C)c2)cc1OC [Compound 425, 1-(3,4-Dimethoxyphenyl)-4-(m-tolyl)butane-1,4-dione] | 5950 nM
COc1ccc(C(=O)CCC(=O)c2ccc(C)cc2)cc1OC [Compound 426, 1-(3,4-Dimethoxyphenyl)-4-(p-tolyl)butane-1,4-dione] | 8800 nM
COc1ccc(C(=O)CCC(=O)c2cncnc2)cc1OC [Compound 430, 1-(3,4-Dimethoxyphenyl)-4-(pyrimidin-5-yl)butane-1,4-dione] | > 10000 nM
COc1ccc(C(=O)CCC(=O)c2ncccn2)cc1OC [Compound 431, 1-(3,4-Dimethoxyphenyl)-4-(pyrimidin-2-yl)butane-1,4-dione] | > 10000 nM
COc1ccc(C(=O)CCC(=O)c2ccncn2)cc1OC [Compound 432, 1-(3,4-Dimethoxyphenyl)-4-(pyrimidin-4-yl)butane-1,4-dione] | 4800 nM
COc1ccc(C(=O)CCC(=O)c2cccnn2)cc1OC [Compound 433, 1-(3,4-Dimethoxyphenyl)-4-(pyridazin-3-yl)butane-1,4-dione] | > 10000 nM
O=C(CCC(=O)c1cccc2c1OCCO2)c1ccco1 [Compound 442, 1-(2,3-Dihydrobenzo[b][1,4]dioxin-5-yl)-4-(furan-2-yl)butane-1,4-dione] | 2150 nM
Cc1ccccc1C(=O)CCC(=O)c1ccc2[nH]ccc2c1 [Compound 445, 1-(1H-indol-5-yl)-4-(o-tolyl)butane-1,4-dione] | 10 nM
Cc1ccc(C(=O)CCC(=O)c2ccc3[nH]ccc3c2)cc1 [Compound 447, 1-(1H-Indol-5-yl)-4-(p-tolyl)butane-1,4-dione] | > 10000 nM
O=C(CCC(=O)c1cccs1)c1ccc2[nH]ccc2c1 [Compound 451, 1-(1H-Indol-5-yl)-4-(thiophen-2-yl)butane-1,4-dione] | 37 nM
Cc1ccccc1C(=O)CCC(=O)c1ccc2occc2c1 [Compound 455, 1-(Benzofuran-5-yl)-4-(o-tolyl)butane-1,4-dione] | 32 nM
Cc1cccc(C(=O)CCC(=O)c2ccc3occc3c2)c1 [Compound 456, 1-(Benzofuran-5-yl)-4-(m-tolyl)butane-1,4-dione] | 673 nM

Structure (SMILES) | EC50
Cc1ccc(C(=O)CCC(=O)c2ccc3occc3c2)cc1 [Compound 457, 1-(Benzofuran-5-yl)-4-(p-tolyl)butane-1,4-dione] | 2890 nM
O=C(CCC(=O)c1ccco1)c1ccc2occc2c1 [Compound 462, 1-(Benzofuran-5-yl)-4-(furan-2-yl)butane-1,4-dione] | 424 nM
Cc1ccccc1C(=O)CCC(=O)c1ccc2ocnc2c1 [Compound 485, 1-(Benzo[d]oxazol-5-yl)-4-(o-tolyl)butane-1,4-dione] | > 10000 nM
O=C(CCC(=O)c1ccccc1F)c1ccc2[nH]ncc2c1 [Compound 495, 1-(2-Fluorophenyl)-4-(1H-indazol-5-yl)butane-1,4-dione] | 8 nM
O=C(CCC(=O)c1ccc2[nH]ncc2c1)c1ccc(F)cc1 [Compound 497, 1-(4-Fluorophenyl)-4-(1H-indazol-5-yl)butane-1,4-dione] | 48 nM
O=C(CCC(=O)c1ccccc1C(F)(F)F)c1ccc2[nH]ncc2c1 [Compound 498, 1-(1H-Indazol-5-yl)-4-(2-(trifluoromethyl)phenyl)butane-1,4-dione] | 12 nM
Cc1ccc(C(=O)CCC(=O)c2ccc3[nH]ncc3c2)cc1 [Compound 503, 1-(1H-Indazol-5-yl)-4-(p-tolyl)butane-1,4-dione] | 487 nM
O=C(CCC(=O)c1ccccn1)c1ccc2[nH]ncc2c1 [Compound 507, 1-(1H-Indazol-5-yl)-4-(pyridin-2-yl)butane-1,4-dione] | 36 nM
O=C(CCC(=O)c1ccc2[nH]ncc2c1)c1ccccc1 [Compound 513, 1-(1H-Indazol-5-yl)-4-phenylbutane-1,4-dione] | 39 nM
O=C(CCC(=O)c1ccco1)c1ccc2[nH]ncc2c1 [Compound 515, 1-(Furan-2-yl)-4-(1H-indazol-5-yl)butane-1,4-dione] | 127 nM
Cc1ccccc1C(=O)CCC(=O)c1c[nH]c2ccccc12 [Compound 518, 1-(1H-Indol-3-yl)-4-(o-tolyl)butane-1,4-dione] | 646 nM
O=C(CCC(=O)c1c[nH]c2ccccc12)c1cccs1 [Compound 524, 1-(1H-Indol-3-yl)-4-(thiophen-2-yl)butane-1,4-dione] | 88 nM
Cc1ccccc1C(=O)CCC(=O)c1n[nH]c2ccccc12 [Compound 528, 1-(1H-Indazol-3-yl)-4-(o-tolyl)butane-1,4-dione] | 148 nM
Cc1cccc(C(=O)CCC(=O)c2n[nH]c3ccccc23)c1 [Compound 529, 1-(1H-Indazol-3-yl)-4-(m-tolyl)butane-1,4-dione] | 695 nM
O=C(CCC(=O)c1ccccc1F)c1ccccn1 [Compound 538, 1-(2-Fluorophenyl)-4-(pyridin-2-yl)butane-1,4-dione] | 63 nM
O=C(CCC(=O)c1ccccc1C(F)(F)F)c1ccccn1 [Compound 541, 1-(Pyridin-2-yl)-4-(2-(trifluoromethyl)phenyl)butane-1,4-dione] | 2810 nM
Cc1ccccc1C(=O)CCC(=O)c1ccccn1 [Compound 544, 1-(Pyridin-2-yl)-4-(o-tolyl)butane-1,4-dione] | 900 nM
COc1ccccc1C(=O)CCC(=O)c1ccccn1 [Compound 547, 1-(2-Methoxyphenyl)-4-(pyridin-2-yl)butane-1,4-dione] | > 10000 nM
O=C(CCC(=O)c1ccco1)c1ccccn1 [Compound 554, 1-(Furan-2-yl)-4-(pyridin-2-yl)butane-1,4-dione] | > 10000 nM
O=C(CCC(=O)c1ccccc1F)c1cccs1 [Compound 557, 1-(2-Fluorophenyl)-4-(thiophen-2-yl)butane-1,4-dione] | 26 nM
O=C(CCC(=O)c1ccccc1C(F)(F)F)c1cccs1 [Compound 559, 1-(Thiophen-2-yl)-4-(2-(trifluoromethyl)phenyl)butane-1,4-dione] | 340 nM
Cc1ccccc1C(=O)CCC(=O)c1cccs1 [Compound 560, 1-(Thiophen-2-yl)-4-(o-tolyl)butane-1,4-dione] | 55 nM
COc1ccccc1C(=O)CCC(=O)c1cccs1 [Compound 562, 1-(2-Methoxyphenyl)-4-(thiophen-2-yl)butane-1,4-dione] | 106 nM
O=C(CCC(=O)c1ncccc1F)c1ccc2c(c1)OCCO2 [Compound 569, 1-(2,3-Dihydrobenzo[b][1,4]dioxin-6-yl)-4-(3-fluoropyridin-2-yl) butane-1,4-dione] | 1.96 nM
